According to US20260297081A1, “COMPOUNDS AND METHODS OF TREATING CANCERS” (Cullgen Inc., priority 2023, published 2026):

Legend:
[1] = tested on: MCF7 cells; assay: Anti-proliferation (viability) of MCF7 cells (Table 7, FIG. 2B); type: cell-based; conditions: Homo sapiens, MCF7, MCF7 cells, 3-6 days, 10-point serial dilution; read-out: GI IC50 in MCF-7
[2] = target: CDK4 (Homo sapiens, UniProt P11802+Q16531); assay: HiBiT detection of HiBiT-tagged CDK4 protein level in MCF7 cells, 16 hours (Table 8); type: cell-based; set-up: expressed in transfected cells; host or cells: MCF7; conditions: MCF7 cells stably expressing HiBiT tagged target proteins; for activity at 0.01 µM: 10 nM, read-out: % CDK4 Relative Level (10 nM); for activity at 0.1 µM: 100 nM, read-out: % CDK4 Relative Level (100 nM)
Procedure: HiBiT detection system quantitatively measures total amounts of HiBiT-tagged proteins using a luminescent based method. MCF7 cells stably expressing HiBiT tagged target proteins were treated with heterobifunctional compounds at indicated concentrations for 16 hours, then lysed with Nano-Glo HiBiT Lytic detection reagents.

Chain of CDK4 (P11802 whole entry): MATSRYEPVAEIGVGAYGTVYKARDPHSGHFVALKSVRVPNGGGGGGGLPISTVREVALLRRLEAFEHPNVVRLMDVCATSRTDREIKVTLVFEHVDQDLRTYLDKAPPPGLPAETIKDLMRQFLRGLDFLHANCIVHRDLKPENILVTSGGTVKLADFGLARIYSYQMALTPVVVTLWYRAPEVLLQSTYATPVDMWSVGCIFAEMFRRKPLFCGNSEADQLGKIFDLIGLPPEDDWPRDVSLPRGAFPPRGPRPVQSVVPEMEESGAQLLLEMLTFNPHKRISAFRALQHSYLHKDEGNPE
Chain of CDK4 (P24385 whole entry partner): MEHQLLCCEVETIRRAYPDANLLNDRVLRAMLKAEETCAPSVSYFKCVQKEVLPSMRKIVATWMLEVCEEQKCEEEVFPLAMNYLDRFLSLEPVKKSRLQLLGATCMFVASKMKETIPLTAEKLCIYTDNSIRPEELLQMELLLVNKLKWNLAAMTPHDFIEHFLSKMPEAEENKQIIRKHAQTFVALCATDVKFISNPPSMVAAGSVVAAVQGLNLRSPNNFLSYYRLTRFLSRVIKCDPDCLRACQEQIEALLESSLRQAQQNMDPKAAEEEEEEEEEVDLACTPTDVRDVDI
Chain of CDK4 (Q16531 2-1140 limits assumed): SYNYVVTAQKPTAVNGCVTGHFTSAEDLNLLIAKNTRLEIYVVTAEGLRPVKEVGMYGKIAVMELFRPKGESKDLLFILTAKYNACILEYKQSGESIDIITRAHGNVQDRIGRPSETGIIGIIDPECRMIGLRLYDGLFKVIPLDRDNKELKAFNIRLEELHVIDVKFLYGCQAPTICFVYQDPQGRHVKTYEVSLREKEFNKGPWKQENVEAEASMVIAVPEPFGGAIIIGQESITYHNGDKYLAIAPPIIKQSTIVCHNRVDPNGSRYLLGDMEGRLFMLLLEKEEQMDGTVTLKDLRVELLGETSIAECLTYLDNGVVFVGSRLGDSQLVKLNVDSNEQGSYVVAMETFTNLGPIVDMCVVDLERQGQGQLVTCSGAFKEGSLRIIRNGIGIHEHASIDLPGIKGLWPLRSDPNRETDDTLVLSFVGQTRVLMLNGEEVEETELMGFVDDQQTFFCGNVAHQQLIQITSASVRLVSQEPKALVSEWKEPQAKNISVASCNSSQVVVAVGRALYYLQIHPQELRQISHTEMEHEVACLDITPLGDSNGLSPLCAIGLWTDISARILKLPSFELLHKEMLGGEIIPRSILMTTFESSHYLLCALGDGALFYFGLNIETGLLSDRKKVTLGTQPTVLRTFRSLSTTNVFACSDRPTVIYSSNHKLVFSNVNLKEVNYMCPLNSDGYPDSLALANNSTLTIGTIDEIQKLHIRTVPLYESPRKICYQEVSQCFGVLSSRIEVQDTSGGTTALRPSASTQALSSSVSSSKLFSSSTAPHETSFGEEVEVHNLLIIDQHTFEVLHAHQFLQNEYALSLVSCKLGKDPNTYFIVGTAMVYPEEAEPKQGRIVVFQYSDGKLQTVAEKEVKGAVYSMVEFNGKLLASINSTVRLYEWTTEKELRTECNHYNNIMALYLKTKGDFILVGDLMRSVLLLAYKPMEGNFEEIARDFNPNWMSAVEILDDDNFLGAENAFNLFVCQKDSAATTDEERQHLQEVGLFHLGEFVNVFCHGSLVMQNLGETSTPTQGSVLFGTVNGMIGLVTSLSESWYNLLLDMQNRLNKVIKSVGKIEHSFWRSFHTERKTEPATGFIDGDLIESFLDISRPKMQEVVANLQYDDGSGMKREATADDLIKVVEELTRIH

SMILES | IC50 [1] [nM] | activity at 0.01 µM [2] [%] | activity at 0.1 µM [2] [%]
CC(=O)c1c(C)c2cnc(Nc3ccc(CN4CCN(CC(=O)N5CCC6(CCC(Nc7nc(C(C)C)ccc7C(=O)Nc7ccc(N(C)C)nn7)C6)C5)CC4)cn3)nc2n(C2CCCC2)c1=O (stereo not drawn) [CPD-583, 2-((2-(2-(4-((6-((6-acetyl-8-cyclopentyl-5-methyl-7-oxo-7,8-dihydropyrido[2,3-d]pyrimidin-2-yl)amino)pyridin-3-yl)methyl)piperazin-1-yl)acetyl)-2-azaspiro[4.4]nonan-7-yl)amino)-N-(6-(dimethylamino)pyridazin-3-yl)-6-isopropylnicotinamide] | < 50 | 55 to 85 | 55 to 85
CC(=O)c1c(C)c2cnc(Nc3ccc(N4CCN(C5CCN(C(=O)C67CC(Nc8nc(NC(C)C)ccc8C(=O)Nc8cc(C)n(C)n8)(C6)C7)C5)CC4)cn3)nc2n(C2CCCC2)c1=O (stereo not drawn) [CPD-587, 2-((3-(3-(4-(6-((6-acetyl-8-cyclopentyl-5-methyl-7-oxo-7,8-dihydropyrido[2,3-d]pyrimidin-2-yl)amino)pyridin-3-yl)piperazin-1-yl)pyrrolidine-1-carbonyl)bicyclo[1.1.1]pentan-1-yl)amino)-N-(1,5-dimethyl-1H-pyrazol-3-yl)-6-(isopropylamino)nicotinamide] | < 50 | 55 to 85 | 55 to 85
CC(=O)c1c(C)c2cnc(Nc3ccc(N4CCN(C5CCN(C(=O)C67CC(Nc8nc(NC(C)C)ccc8C(=O)Nc8cn(C)c(C9CC9)n8)(C6)C7)C5)CC4)cn3)nc2n(C2CCCC2)c1=O (stereo not drawn) [CPD-588, 2-((3-(3-(4-(6-((6-acetyl-8-cyclopentyl-5-methyl-7-oxo-7,8-dihydropyrido[2,3-d]pyrimidin-2-yl)amino)pyridin-3-yl)piperazin-1-yl)pyrrolidine-1-carbonyl)bicyclo[1.1.1]pentan-1-yl)amino)-N-(2-cyclopropyl-1-methyl-1H-imidazol-4-yl)-6-(isopropylamino)nicotinamide] | < 50 | 55 to 85 | 55 to 85
CC(=O)c1c(C)c2cnc(Nc3ccc(N4CCN(C5CCN(C(=O)C67CC(Nc8nc(C)ccc8C(=O)Nc8ccc(N(C)C)nn8)(C6)C7)C5)CC4)cn3)nc2n(C2CCCC2)c1=O (stereo not drawn) [CPD-590, 2-((3-(3-(4-(6-((6-acetyl-8-cyclopentyl-5-methyl-7-oxo-7,8-dihydropyrido[2,3-d]pyrimidin-2-yl)amino)pyridin-3-yl)piperazin-1-yl)pyrrolidine-1-carbonyl)bicyclo[1.1.1]pentan-1-yl)amino)-N-(6-(dimethylamino)pyridazin-3-yl)-6-methylnicotinamide] | < 50 | 55 to 85 | 55 to 85
CC(=O)c1c(C)c2cnc(Nc3ccc(N4CCN(C5CCN(C(=O)C67CC(Nc8nc(NC(C)C)ccc8C(=O)Nc8cc(C)on8)(C6)C7)C5)CC4)cn3)nc2n(C2CCCC2)c1=O (stereo not drawn) [CPD-591, 2-((3-(3-(4-(6-((6-acetyl-8-cyclopentyl-5-methyl-7-oxo-7,8-dihydropyrido[2,3-d]pyrimidin-2-yl)amino)pyridin-3-yl)piperazin-1-yl)pyrrolidine-1-carbonyl)bicyclo[1.1.1]pentan-1-yl)amino)-6-(isopropylamino)-N-(5-methylisoxazol-3-yl)nicotinamide] | < 50 | 55 to 85 | 55 to 85
CCc1ccc(C(=O)Nc2ccc(N(C)C)nn2)c(N[C@H]2CC[C@H](C(=O)N3CCC(N4CCN(C5CCC(Nc6ncc7c(C)c(C(C)=O)c(=O)n(C8CCCC8)c7n6)CC5)CC4)C3)CC2)n1 (stereo partly drawn) [CPD-597, 2-((trans-4-(3-(4-(4-((6-acetyl-8-cyclopentyl-5-methyl-7-oxo-7,8-dihydropyrido[2,3-d]pyrimidin-2-yl)amino)cyclohexyl)piperazin-1-yl)pyrrolidine-1-carbonyl)cyclohexyl)amino)-N-(6-(dimethylamino)pyridazin-3-yl)-6-ethylnicotinamide] | < 50 | > 85 | 55 to 85
CNc1ccc(C(=O)Nc2ccc(N(C)C)nn2)c(NCCC(=O)N2CCN(Cc3ccc(Nc4ncc(F)c(-c5cc(F)c6nc(C)n(C(C)C)c6c5)n4)nc3)CC2)n1 [CPD-600, N-(6-(dimethylamino)pyridazin-3-yl)-2-((3-(4-((6-((5-fluoro-4-(4-fluoro-1-isopropyl-2-methyl-1H-benzo[d]imidazol-6-yl)pyrimidin-2-yl)amino)pyridin-3-yl)methyl)piperazin-1-yl)-3-oxopropyl)amino)-6-(methylamino)nicotinamide] | > 100 | 55 to 85 | 55 to 85
CNc1ccc(C(=O)Nc2ccc(N(C)C)nn2)c(NCCCC(=O)N2CCN(Cc3ccc(Nc4ncc(F)c(-c5cc(F)c6nc(C)n(C(C)C)c6c5)n4)nc3)CC2)n1 [CPD-601, N-(6-(dimethylamino)pyridazin-3-yl)-2-((4-(4-((6-((5-fluoro-4-(4-fluoro-1-isopropyl-2-methyl-1H-benzo[d]imidazol-6-yl)pyrimidin-2-yl)amino)pyridin-3-yl)methyl)piperazin-1-yl)-4-oxobutyl)amino)-6-(methylamino)nicotinamide] | > 100 | 55 to 85 | 55 to 85

Other lines, results leading:

IC50 [1] [nM] | activity at 0.01 µM [2] [%] | activity at 0.1 µM [2] [%] | SMILES
< 50 | 55 to 85 | 55 to 85 | CC(=O)c1c(C)c2cnc(Nc3ccc(CN4CCN(CC(=O)NC5CC6(C5)CC(Nc5nc(NC(C)C)ccc5C(=O)Nc5cc7n(n5)CCC7)C6)CC4)cn3)nc2n(C2CCCC2)c1=O (stereo not drawn) [CPD-584, 2-((6-(2-(4-((6-((6-acetyl-8-cyclopentyl-5-methyl-7-oxo-7,8-dihydropyrido[2,3-d]pyrimidin-2-yl)amino)pyridin-3-yl)methyl)piperazin-1-yl)acetamido)spiro[3.3]heptan-2-yl)amino)-N-(5,6-dihydro-4H-pyrrolo[1,2-b]pyrazol-2-yl)-6-(isopropylamino) nicotinamide]
< 50 | 55 to 85 | 55 to 85 | CC(=O)c1c(C)c2cnc(Nc3ccc(CN4CCN(C(C)C(=O)NC5CC6(C5)CC(Nc5nc(NC(C)C)ccc5C(=O)Nc5ccc(N(C)C)nn5)C6)CC4)cn3)nc2n(C2CCCC2)c1=O (stereo not drawn) [CPD-585, 2-((6-(2-(4-((6-((6-acetyl-8-cyclopentyl-5-methyl-7-oxo-7,8-dihydropyrido[2,3-d]pyrimidin-2-yl)amino)pyridin-3-yl)methyl)piperazin-1-yl)propanamido)spiro[3.3]heptan-2-yl)amino)-N-(6-(dimethylamino)pyridazin-3-yl)-6-(isopropylamino)nicotinamide]
< 50 | 55 to 85 | 55 to 85 | CC(=O)c1c(C)c2cnc(Nc3ccc(C(C)N4CCN(CC(=O)NC5CC6(C5)CC(Nc5nc(NC(C)C)ccc5C(=O)Nc5ccc(N(C)C)nn5)C6)CC4)cn3)nc2n(C2CCCC2)c1=O (stereo not drawn) [CPD-586, 2-((6-(2-(4-(1-(6-((6-acetyl-8-cyclopentyl-5-methyl-7-oxo-7,8-dihydropyrido[2,3-d]pyrimidin-2-yl)amino)pyridin-3-yl)ethyl)piperazin-1-yl)acetamido)spiro[3.3]heptan-2-yl)amino)-N-(6-(dimethylamino)pyridazin-3-yl)-6-(isopropylamino)nicotinamide]
< 50 | 55 to 85 | 55 to 85 | CC(=O)c1c(C)c2cnc(Nc3ccc(CN4CCN(CC(=O)N(C)C5CC6(CC(Nc7nc(NC(C)C)ccc7C(=O)Nc7ccc(N(C)C)nn7)C6)C5)CC4)cn3)nc2n(C2CCCC2)c1=O (stereo not drawn) [CPD-594, 2-((6-(2-(4-((6-((6-acetyl-8-cyclopentyl-5-methyl-7-oxo-7,8-dihydropyrido[2,3-d]pyrimidin-2-yl)amino)pyridin-3-yl)methyl)piperazin-1-yl)-N-methylacetamido)spiro[3.3]heptan-2-yl)amino)-N-(6-(dimethylamino)pyridazin-3-yl)-6-(isopropylamino)nicotinamide]
< 50 | > 85 | 55 to 85 | CC(=O)c1c(C)c2cnc(Nc3ccc(CN4CCC(N(C)C(=O)C5CC6(CC(Nc7nc(NC(C)C)ccc7C(=O)Nc7ccc(N(C)C)nn7)C6)C5)CC4)cn3)nc2n(C2CCCC2)c1=O (stereo not drawn) [CPD-595, 2-((6-((1-((6-((6-acetyl-8-cyclopentyl-5-methyl-7-oxo-7,8-dihydropyrido[2,3-d]pyrimidin-2-yl)amino)pyridin-3-yl)methyl)piperidin-4-yl)(methyl)carbamoyl)spiro[3.3]heptan-2-yl)amino)-N-(6-(dimethylamino)pyridazin-3-yl)-6-(isopropylamino)nicotinamide]
> 100 | 55 to 85 | > 85 | CC(=O)c1c(C)c2cnc(Nc3ccc(CN4CCC(CC(=O)NC5CC6(C5)CC(Nc5nc(NC(C)C)ccc5C(=O)Nc5ccc(N(C)C)nn5)C6)C4)cn3)nc2n(C2CCCC2)c1=O (stereo not drawn) [CPD-596, 2-((6-(2-(1-((6-((6-acetyl-8-cyclopentyl-5-methyl-7-oxo-7,8-dihydropyrido[2,3-d]pyrimidin-2-yl)amino)pyridin-3-yl)methyl)pyrrolidin-3-yl)acetamido)spiro[3.3]heptan-2-yl)amino)-N-(6-(dimethylamino)pyridazin-3-yl)-6-(isopropylamino)nicotinamide]
< 50 | 55 to 85 | 55 to 85 | CC(=O)c1c(C)c2cnc(Nc3ccc(CC4CCN(CC(=O)NC5CC6(C5)CC(Nc5nc(NC(C)C)ccc5C(=O)Nc5ccc(N(C)C)nn5)C6)CC4)cn3)nc2n(C2CCCC2)c1=O (stereo not drawn) [CPD-599, 2-((6-(2-(4-((6-((6-acetyl-8-cyclopentyl-5-methyl-7-oxo-7,8-dihydropyrido[2,3-d]pyrimidin-2-yl)amino)pyridin-3-yl)methyl)piperidin-1-yl)acetamido)spiro[3.3]heptan-2-yl)amino)-N-(6-(dimethylamino)pyridazin-3-yl)-6-(isopropylamino)nicotinamide]
